The term GI50 denotes the concentration at which growth is held to half of that of the control. The term TGI denotes the concentration at which net growth stops. Low values mean more potent growth arrest, high ones less potent growth arrest.

Structures are written as SMILES.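 The compound was tested at five concentrations on cells cultured in 96-well plates, with a 48-hour exposure period. Abbreviation: GI50, concentration required for 50% inhibition of growth. TGI marks complete inhibition of growth.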 Some results are limits rather than exact numbers.

In the first test the test system is HCT-116 colon. In words: DTP human tumour cell line panel, 48 h.
Turning to `CCNCCNc1cc(-c2ccc(C#N)cc2)c(C#N)c2nc3ccccc3n12`, the GI50 is 1.5 µM and the total growth inhibition concentration (TGI) came to 2.94 µM.

In the case of `[2H]c1nc(=Nc2cc(NC(=O)C=C)c(N(C)CCN(C)C)cc2OC)[nH]c(-c2cn(C([2H])([2H])[2H])c3ccccc23)c1[2H]`, the GI50 is 1.48 µM and the TGI turned out to be 2.83 µM.

Consider `COc1cc2nc(-c3ccc(C(F)(F)F)cc3)cc(OCCCN3CCCC3)c2cc1OC`, for which the concentration for 50% growth inhibition (GI50) is 0.333 µM and the TGI came to 4.29 µM.

For `C/C1=C\CC[C@@](C)(O)[C@@H]2C[C@H](CC/C(C)=C/CC1)C1(CC1)C(=O)O2`, the GI50 was 24.2 µM and the TGI amounted to 54.1 µM.

For the compound `COc1ccc(C(=O)c2nc3ccccc3n2CC(=O)c2ccc(Cl)cc2)cc1`, the GI50 was 3.15 µM and the TGI is more than 100 µM.

Take `O=C(NCCN1CCNCC1)c1ccc(Nc2nc3ccccc3c3occc23)cc1`: the GI50 was 4.11 µM and the TGI is 15.8 µM.

For `COc1cc(C2c3cc4c(cc3[C@@H](Nc3ccc5c(c3)OCCO5)C3COC(=O)[C@H]23)OCO4)cc(OC)c1O` (stereo not given in full), the total growth inhibition concentration (TGI) amounted to 8 µM.

In the next test the test system is OVCAR-4 ovarian. In words: DTP human tumour cell line panel, 48 h.
As for `CCNCCNc1cc(-c2ccc(C#N)cc2)c(C#N)c2nc3ccccc3n12`, the GI50 is 2.54 µM and the total growth inhibition concentration (TGI) was found to be 8.74 µM.

As to `[2H]c1nc(=Nc2cc(NC(=O)C=C)c(N(C)CCN(C)C)cc2OC)[nH]c(-c2cn(C([2H])([2H])[2H])c3ccccc23)c1[2H]`, the GI50 was 3.27 µM and the TGI came out at 17.3 µM.

Regarding `COc1cc2nc(-c3ccc(C(F)(F)F)cc3)cc(OCCCN3CCCC3)c2cc1OC`, the GI50 was 3.1 µM and the TGI is more than 86.7 µM.

With `C/C1=C\CC[C@@](C)(O)[C@@H]2C[C@H](CC/C(C)=C/CC1)C1(CC1)C(=O)O2`, the GI50 was 26.3 µM and the total growth inhibition concentration (TGI) is more than 100 µM.

For `COc1ccc(C(=O)c2nc3ccccc3n2CC(=O)c2ccc(Cl)cc2)cc1`, the GI50 is 5.02 µM and the TGI is more than 100 µM.

As for `O=C(NCCN1CCNCC1)c1ccc(Nc2nc3ccccc3c3occc23)cc1`, the GI50 was 14.3 µM and the TGI came out at 33.3 µM.

Compound `COc1cc(C2c3cc4c(cc3[C@@H](Nc3ccc5c(c3)OCCO5)C3COC(=O)[C@H]23)OCO4)cc(OC)c1O` (stereo not given in full) yielded a TGI of 29.3 µM.

Another test has as its system SK-MEL-2 melanoma. Put plainly: DTP human tumour cell line panel, 48 h.
Take `CCNCCNc1cc(-c2ccc(C#N)cc2)c(C#N)c2nc3ccccc3n12`: the GI50 is 3.2 µM and the total growth inhibition concentration (TGI) came to 10.4 µM.

With `[2H]c1nc(=Nc2cc(NC(=O)C=C)c(N(C)CCN(C)C)cc2OC)[nH]c(-c2cn(C([2H])([2H])[2H])c3ccccc23)c1[2H]`, the GI50 is 1.73 µM and the TGI was determined as 3.65 µM.

As to `COc1cc2nc(-c3ccc(C(F)(F)F)cc3)cc(OCCCN3CCCC3)c2cc1OC`, the GI50 is 3.41 µM and the TGI worked out at 11.2 µM.

Take `C/C1=C\CC[C@@](C)(O)[C@@H]2C[C@H](CC/C(C)=C/CC1)C1(CC1)C(=O)O2`: the GI50 is 41.2 µM and the TGI was more than 100 µM.

For the compound `COc1ccc(C(=O)c2nc3ccccc3n2CC(=O)c2ccc(Cl)cc2)cc1`, the GI50 was 12.6 µM and the concentration for total growth inhibition (TGI) was more than 100 µM.

As to `O=C(NCCN1CCNCC1)c1ccc(Nc2nc3ccccc3c3occc23)cc1`, the GI50 was 18.3 µM and the concentration for total growth inhibition (TGI) came to 36.4 µM.

For `COc1cc(C2c3cc4c(cc3[C@@H](Nc3ccc5c(c3)OCCO5)C3COC(=O)[C@H]23)OCO4)cc(OC)c1O` (stereo not given in full), the TGI was 12 µM.

The test system of a further test is A549 NSCLC. Put plainly: DTP human tumour cell line panel, 48 h.
Regarding `CCNCCNc1cc(-c2ccc(C#N)cc2)c(C#N)c2nc3ccccc3n12`, the GI50 was 3.06 µM and the TGI worked out at 6.39 µM.

With `[2H]c1nc(=Nc2cc(NC(=O)C=C)c(N(C)CCN(C)C)cc2OC)[nH]c(-c2cn(C([2H])([2H])[2H])c3ccccc23)c1[2H]`, the GI50 was 1.14 µM and the TGI was determined as 7.64 µM.

Regarding `COc1cc2nc(-c3ccc(C(F)(F)F)cc3)cc(OCCCN3CCCC3)c2cc1OC`, the GI50 is 0.685 µM and the TGI is more than 42.7 µM.

On to `C/C1=C\CC[C@@](C)(O)[C@@H]2C[C@H](CC/C(C)=C/CC1)C1(CC1)C(=O)O2`, for which the GI50 was 42.8 µM and the concentration for total growth inhibition (TGI) is more than 100 µM.

On to `COc1ccc(C(=O)c2nc3ccccc3n2CC(=O)c2ccc(Cl)cc2)cc1`, for which the GI50 is 17.5 µM and the TGI was more than 100 µM.

As for `O=C(NCCN1CCNCC1)c1ccc(Nc2nc3ccccc3c3occc23)cc1`, the GI50 was 17.5 µM and the total growth inhibition concentration (TGI) is 36.8 µM.

For the compound `COc1cc(C2c3cc4c(cc3[C@@H](Nc3ccc5c(c3)OCCO5)C3COC(=O)[C@H]23)OCO4)cc(OC)c1O` (stereo not given in full), the TGI was 7.15 µM.

In the next test the test system is SN12C renal. Put plainly: DTP human tumour cell line panel, 48 h.
As to `CCNCCNc1cc(-c2ccc(C#N)cc2)c(C#N)c2nc3ccccc3n12`, the GI50 is 3.13 µM and the TGI came out at 11.8 µM.

As to `[2H]c1nc(=Nc2cc(NC(=O)C=C)c(N(C)CCN(C)C)cc2OC)[nH]c(-c2cn(C([2H])([2H])[2H])c3ccccc23)c1[2H]`, the GI50 is 1.18 µM and the TGI stood at 2.71 µM.

With `COc1cc2nc(-c3ccc(C(F)(F)F)cc3)cc(OCCCN3CCCC3)c2cc1OC`, the GI50 was 0.558 µM and the total growth inhibition concentration (TGI) was more than 42.7 µM.

For `C/C1=C\CC[C@@](C)(O)[C@@H]2C[C@H](CC/C(C)=C/CC1)C1(CC1)C(=O)O2`, the GI50 was 21.5 µM and the total growth inhibition concentration (TGI) was 56.2 µM.

Take `COc1ccc(C(=O)c2nc3ccccc3n2CC(=O)c2ccc(Cl)cc2)cc1`: the GI50 was 9.72 µM and the TGI is more than 100 µM.

Turning to `O=C(NCCN1CCNCC1)c1ccc(Nc2nc3ccccc3c3occc23)cc1`, the GI50 was 18.2 µM and the TGI is 34.9 µM.

In turn, `COc1cc(C2c3cc4c(cc3[C@@H](Nc3ccc5c(c3)OCCO5)C3COC(=O)[C@H]23)OCO4)cc(OC)c1O` (stereo not given in full) had a total growth inhibition concentration (TGI) of 10.2 µM.

These data come from PubChem BioAssay (NCI).
